Earlier results as cited in patent US20180326089A1, “PROTEIN NANOSTRUCTURE BASED DRUG DELIVERY SYSTEM FOR THE DELIVERY OF THERAPEUTIC AGENTS TO THE ANTERIOR SEGMENT OF THE EYE” (Council of Scientific & Industrial Research, priority 2015, published 2018).

For `CC(=O)N1CCN(c2ccc(OCC3COC(Cn4ccnc4)(c4ccc(Cl)cc4Cl)O3)cc2)CC1` (stereo not shown) [Ketoconazole], the water solubility is given as “poorly water soluble”.
